{"source": "paper PMC12973313", "about": "(Chemical Science, 2026)", "key": {"[1]": {"settings": "H2O 5% EtOH, 5.56 mM; cited from earlier work"}, "[2]": {"settings": "H2O 5% EtOH, 5.56 mM; cited from earlier work", "remark": "listed apart in the source"}, "[3]": {"design": "method as in PMID 29633393", "settings": "H2O 5% EtOH, cited from earlier work"}, "[4]": {"assay": "Metabolic stability in liver microsomes", "type": "in vitro ADME, rat", "experimental": "Following this, the metabolic stability of 9 was determined against mouse, rat, and human liver microsomes. […] Within this assay the stability of the intact parent compound is monitored with respect to time, during incubation at 37 °C in the presence and absence of the co-factor NADPH – required for cytochrome p450 activity.\nMetabolic Stability in Rat, Mouse and Human Liver Microsomes:\nThe metabolic stability of compounds at a concentration of 1 µM, in rat, mouse and human liver microsomes (BD Gentest, Franklin Lakes NJ) was measured following incubation with […]\n(NADPH) at 37 °C. Aliquots of each incubation were removed at 0.5, 5, 15, 30 and 60 minutes. The reaction was stopped by the addition of cold acetonitrile containing analytical […]\nSamples were then centrifuged at 3,220 g for 40 minutes. The supernatant was aliquoted and added to ultra-pure H2O in a 1:1 ratio in preparation for LC-MS/MS analysis.\nIncubations were conducted in duplicate; control incubations (substituting PBS for NADPH) were conducted simultaneously.\nSamples were analysed using a Shimadzu Shimadzu Nexera LC Binary Gradient LC-30AD (Shimadzu Inc, Kyoto), coupled to a Sciex 5500 mass spectrometer (AB Inc., Illinois) for rat and mouse microsomes and a Sciex 6500+ for human microsomes. Separation achieved using an XSelect HSS T3 column (2.5µm, 50 x 2.1 mm) (Waters Ltd., Wilmslow) at a temperature of 40°C and a binary mobile phase gradient at a flow rate of 0.7 mL/min. Initial […]\n(0.1% formic acid in acetonitrile).\n0.5 minutes and then immediately returned to initial conditions. Sample analysis was by electrospray ionisation combined with multiple reaction monitoring in positive ion mode.\nThe ionspray voltage was 5500V.\nBi-directional Permeability in Caco-2 Cell Line: […]"}, "[5]": {"assay": "Plasma protein binding, equilibrium dialysis", "type": "in vitro ADME, human", "experimental": "This allows an assessment of the free drug concentration available to distribute into the tissues and interact with the target. The extent to which a compound binds to the constituents of blood plasma can influence drug distribution. […] page 10: In vitro Absorption, Distribution and Metabolism studies General note: These studies were performed by Contract Research Organisation (CRO) Pharmaron. The methodology provided within the ESI is published within the express permission of this organisation. The percentage of a compound recovered during the […] limitations such as unintended potential non-specific binding events to experimental equipment, solubility issues, etc. Protein Binding measurements in human plasma by using equilibrium dialysis: The fraction unbound in human plasma (P-KB, Ltd People's hospital of Shandong) was measured using 96-well Equilibrium Dialysis Plate (HTDialysis LLC, Gales Ferry, CT). Human plasma containing 5 μM test compound was dialysed against dialysis buffer (PBS, pH 7.4) with initial samples taken to allow for assessment of plasma stability and recovery before the plate was incubated for 6 hours at 37°C at 5% CO2. Samples were removed at 6 hours, and all samples were matrix matched and quenched with acetonitrile containing internal standard. Samples were centrifuged at 3,220g for 30 minutes to precipitate protein and enable sampling of supernatant prior to appropriate dilution for liquid chromatography mass-spectrometry (LC-MS/MS) analysis. Samples were analysed using a Shimadzu Nexera LC Binary Gradient LC-30AD (Shimadzu Inc, Kyoto), coupled to a Sciex 6500+ (AB Inc., Illinois). Separation was achieved using a XSelect HSS T3 (2.5μm, 2.1 x 50 mm) (Waters Ltd., Wilmslow) column at a temperature of 40°C and a binary mobile phase gradient at a flow rate of 0.8 mL/min. Initial LC conditions comprised of […] was ramped to 98% B at 0.5 min, held for 0.4 min and then immediately returned to initial conditions. Sample analysis was by electrospray ionisation in combined with multiple reaction monitoring in positive ionisation mode. The ionisation voltage was +5500 V. Kinetic Solubility Determination in PBS pH 7.4: The stock solutions of test and control compounds were prepared in DMSO at 10 mM. From […] These solutions were then shaken at 1100 rpm for 2 hours at 25°C. Following incubation, the samples were filtered using a vacuum manifold. The filtrate was analysed and quantified against a standard of known concentration using liquid chromatography mass- spectrometry (LC-MS/MS). Samples were analysed using a Shimadzu Nexera LC Binary Gradient LC-30AD (Shimadzu Inc, Kyoto), coupled to a Sciex 4500 mass spectrometer (AB Inc., Illinois). Separation of […] Wilmslow) at a temperature of 40°C and a binary mobile phase gradient at a flow rate of 0.8 mL/min. […] This was ramped to 98% solvent B at 0.5 minutes, held for 0.4 minutes and then immediately returned to initial conditions. Sample analysis was by electrospray ionisation combined with multiple reaction monitoring in positive ion mode. The ionspray voltage was […]. 10"}}, "note": "“And” between values parts separate entries of the source, which are not always exact repeats. Equal values may be shown once. Read-outs that look alike come from different tables or passages of the source."}
{"smiles": "O=C(O)CNC(=O)Nc1ccc(C(F)(F)F)cc1", "note": "[SSA 1]", "values": [{"measurement": "dH (nm), DLS peak maxima", "setting": "[1]", "value": "220 nm and 220 (ref. [30]) nm"}, {"measurement": "Zeta potential (mV)", "setting": "[2]", "value": "-37 mV and −37 (ref. [30]) mV"}, {"measurement": "CAC (mM)", "setting": "[3]; approx. 291 K", "value": "11.2 (ref. [30]) mM"}, {"measurement": "Surface tension (mN m^-1)", "setting": "[3]", "value": "39.33 (ref. [30]) mN m^−1"}]}
{"smiles": "O=C(Nc1ccc(C(F)(F)F)cc1)N[C@H](Cc1ccccc1)C(=O)O", "note": "[SSA 9]", "values": [{"measurement": "microsomal CLint at 1 µM", "setting": "[4]; liver microsomes, rat microsomes", "value": "< 7.5", "unit": "µL/min/mg"}, {"measurement": "Hepatic Extraction Ratio (ER)", "setting": "[4]; rat", "value": "< 0.21"}, {"measurement": "Predicted Hepatic CLH", "setting": "[4]; rat", "value": "< 14.42", "unit": "mL/min/kg"}, {"measurement": "In vitro t1/2", "setting": "[4]; rat, 1 µM, 0.5 mg protein/mL", "value": "> 3.0797", "unit": "h"}, {"measurement": "Remaining percentage (%) 0.5 min", "setting": "[4]; rat, +Cofactors", "value": 100.00, "unit": "%"}, {"measurement": "Remaining percentage (%) 5 min", "setting": "[4]; rat, +Cofactors", "value": 107.16, "unit": "%"}, {"measurement": "Remaining percentage (%) 15 min", "setting": "[4]; rat, +Cofactors", "value": 104.62, "unit": "%"}, {"measurement": "Remaining percentage (%) 30 min", "setting": "[4]; rat, +Cofactors", "value": 102.68, "unit": "%"}, {"measurement": "Remaining percentage (%) 60 min", "setting": "[4]; rat, +Cofactors", "value": 102.41, "unit": "%"}, {"measurement": "Remaining percentage (%) 0.5 min", "setting": "[4]; rat, -Cofactors", "value": 100.00, "unit": "%"}, {"measurement": "Remaining percentage (%) 60 min", "setting": "[4]; rat, -Cofactors", "value": 107.67, "unit": "%"}, {"measurement": "half-life at 1 µM", "setting": "[4]; rat, liver microsomes, rat, 1 µM, 0.5 mg protein/mL, read-out: In vitro t1/2", "value": "> 3.08", "unit": "h"}, {"measurement": "CLint scaled at 1 µM", "setting": "[4]; rat, liver microsomes, read-out: Scale-up CLint", "value": "< 18.3", "unit": "mL/min/kg"}, {"measurement": "% Bound", "setting": "[5]; human plasma, 5 µM, 6 hours, 37 °C", "value": 99.73, "unit": "%"}, {"measurement": "% Unbound", "setting": "[5]; human plasma, 6 hours", "value": 0.3, "unit": "%"}, {"measurement": "% Stability / % Remaining at 6 hr", "setting": "[5]; human plasma, 6 hr", "value": 98.85, "unit": "%"}, {"measurement": "% Recovery", "setting": "[5]; human plasma, after 6 hours", "value": 98.3, "unit": "%"}, {"measurement": "recovery at 6 h, 5 µM", "setting": "[5]; human, human plasma, pH 7.4, human plasma, after 6 hours", "value": 98.3, "unit": "%"}, {"measurement": "remaining at 6 h, 5 µM", "setting": "[5]; human, plasma, human plasma, 6 hr, read-out: % Stability / % Remaining at 6 hr", "value": 98.9, "unit": "%"}, {"measurement": "fraction unbound at 6 h, 5 µM", "setting": "[5]; human, plasma, pH 7.4, human plasma, 5 µM, 6 hours, 37 °C, read-out: % Bound (converted)", "value": 0.003}, {"measurement": "fraction unbound at 6 h, 5 µM", "setting": "[5]; human, plasma, pH 7.4, human plasma, 6 hours, read-out: % Unbound", "value": 0.0027}]}
